How the values were obtained:
Type in all cases: in vivo
[1] = test system: pigweed (Amaranthus retroflexus); assay: Test A preemergence, visual injury rating
How it was run: (§1)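 Compounds in non-phytotoxic solvent with surfactant applied as soil spray preemergence, or postemergence to plants 2-10 cm at one- to two-leaf stage, in loam/sand. After approximately 10 days in greenhouse, injury rated visually versus untreated controls, 0 (no effect) to 100 (complete control).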

[2] = test system: ragweed (common ragweed, Ambrosia elatior); assay: Test A preemergence, visual injury rating
How it was run: as §1

[3] = test system: giant foxtail (Setaria faberii); assay: Test A preemergence, visual injury rating
How it was run: as §1

[4] = test system: Italian ryegrass (Lolium multiflorum); assay: Test A preemergence, visual injury rating
How it was run: as §1

[5] = test system: wheat (winter wheat, Triticum aestivum); assay: Test C preemergence, plant response rating; settings: Preemergence
How it was run: (§2)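 Greenhouse plants rated visually against untreated controls 13–15 d after treatment, scale 0 = no effect to 100 = complete control. Postemergence sprays went onto potted plants 2–18 cm tall (1–4 leaves); preemergence sprays onto soil freshly sown in loam–sand or silt loam, chemicals formulated in non-phytotoxic solvent with surfactant.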

[6] = test system: oilseed rape (Brassica napus); assay: Test C preemergence, plant response rating; settings: Preemergence
How it was run: as §2

[7] = test system: foxtail, giant (giant foxtail, Setaria faberii); assay: Test C preemergence, plant response rating; settings: Preemergence
How it was run: as §2

[8] = test system: waterhemp (common waterhemp, Amaranthus rudis); assay: Test C preemergence, plant response rating; settings: Preemergence
How it was run: as §2

corn (Zea mays) = assay: Test C preemergence, plant response rating; settings: Preemergence
How it was run: as §2

[9] = test system: velvetleaf (Abutilon theophrasti); assay: Test C preemergence, plant response rating; settings: Preemergence
How it was run: as §2

soybean (Glycine max) = assay: Test C preemergence, plant response rating; settings: Preemergence
How it was run: as §2

[10] = test system: nutsedge, yellow (yellow nutsedge, Cyperus esculentus); assay: Test C preemergence, plant response rating; settings: Preemergence
How it was run: as §2

[11] = test system: crabgrass, large (large crabgrass, Digitaria sanguinalis); assay: Test C preemergence, plant response rating; settings: Preemergence
How it was run: as §2

[12] = test system: ragweed (common ragweed, Ambrosia elatior); assay: Test C preemergence, plant response rating; settings: Preemergence
How it was run: as §2

[13] = test system: lambsquarters (Chenopodium album); assay: Test C preemergence, plant response rating; settings: Preemergence
How it was run: as §2

[14] = test system: blackgrass (Alopecurus myosuroides); assay: Test C preemergence, plant response rating; settings: Preemergence
How it was run: as §2

[15] = test system: ryegrass, Italian (Italian ryegrass, Lolium multiflorum); assay: Test C preemergence, plant response rating; settings: Preemergence
How it was run: as §2

[16] = test system: morningglory (Ipomoea coccinea); assay: Test C preemergence, plant response rating; settings: Preemergence
How it was run: as §2

[17] = 31 g ai/ha, 0 to 100 scale, 0 no effect, 100 complete control
[18] = 125 g ai/ha, 0 to 100 scale (0 no effect, 100 complete control)

FC(F)(F)CCCCc1c(Br)cccc1Oc1ncc(Cl)cn1 [Compound 138]
Plant response rating, Pigweed [1, 17]: 80 | Plant response rating, Pigweed [1, 18]: 100 | Plant response rating, Ragweed [2, 17]: 0 | Plant response rating, Ragweed [2, 18]: 0 | Plant response rating, Foxtail, Giant [3, 17]: 90 | Plant response rating, Foxtail, Giant [3, 18]: 100 | Plant response rating, Ryegrass, Italian [4, 17]: 10 | Plant response rating, Ryegrass, Italian [4, 18]: 100 | Plant response rating, Wheat ([5]; 125 g ai/ha, scale of 0 to 100): 10 | Plant response rating, Wheat ([5]; 31 g ai/ha, scale 0 to 100): 5 | Plant response rating, Wheat ([5]; 62 g ai/ha, scale 0 to 100): 5 | Plant response rating, Oilseed Rape ([6]; 125 g ai/ha, scale of 0 to 100): 20 | Plant response rating, Oilseed Rape ([6]; 31 g ai/ha, scale 0 to 100): 0 | Plant response rating, Oilseed Rape ([6]; 62 g ai/ha, scale 0 to 100): 5 | Plant response rating, Foxtail, Giant ([7]; 125 g ai/ha, scale of 0 to 100): 100 | Plant response rating, Foxtail, Giant ([7]; 31 g ai/ha, scale 0 to 100): 80 | Plant response rating, Foxtail, Giant ([7]; 62 g ai/ha, scale 0 to 100): 85 | Plant response rating, Waterhemp ([8]; 125 g ai/ha, scale of 0 to 100): 98 | Plant response rating, Waterhemp ([8]; 31 g ai/ha, scale 0 to 100): 85 | Plant response rating, Waterhemp ([8]; 62 g ai/ha, scale 0 to 100): 100 | Plant response rating, Corn (corn (Zea mays); 125 g ai/ha, scale of 0 to 100): 5 | Plant response rating, Corn (corn (Zea mays); 16 g ai/ha, scale 0 to 100): 0 | Plant response rating, Corn (corn (Zea mays); 31 g ai/ha, scale 0 to 100): 0 | Plant response rating, Corn (corn (Zea mays); 62 g ai/ha, scale 0 to 100): 5 | Plant response rating, Velvetleaf ([9]; 125 g ai/ha, scale of 0 to 100): 50 | Plant response rating, Velvetleaf ([9]; 31 g ai/ha, scale 0 to 100): 25 | Plant response rating, Velvetleaf ([9]; 62 g ai/ha, scale 0 to 100): 20 | Plant response rating, Soybean (soybean (Glycine max); 125 g ai/ha, scale of 0 to 100): 5 | Plant response rating, Soybean (soybean (Glycine max); 31 g ai/ha, scale 0 to 100): 0 | Plant response rating, Soybean (soybean (Glycine max); 62 g ai/ha, scale 0 to 100): 0 | Plant response rating, Nutsedge, Yellow ([10]; 125 g ai/ha, scale of 0 to 100): 0 | Plant response rating, Nutsedge, Yellow ([10]; 31 g ai/ha, scale 0 to 100): 0 | Plant response rating, Nutsedge, Yellow ([10]; 62 g ai/ha, scale 0 to 100): 0 | Plant response rating, Crabgrass, Large ([11]; 125 g ai/ha, scale of 0 to 100): 98 | Plant response rating, Crabgrass, Large ([11]; 16 g ai/ha, scale 0 to 100): 75 | Plant response rating, Crabgrass, Large ([11]; 31 g ai/ha, scale 0 to 100): 95 | Plant response rating, Crabgrass, Large ([11]; 62 g ai/ha, scale 0 to 100): 98 | Plant response rating, Ragweed ([12]; 125 g ai/ha, scale of 0 to 100): 10 | Plant response rating, Ragweed ([12]; 31 g ai/ha, scale 0 to 100): 0 | Plant response rating, Ragweed ([12]; 62 g ai/ha, scale 0 to 100): 0 | Plant response rating, Lambsquarters ([13]; 125 g ai/ha, scale of 0 to 100): 70 | Plant response rating, Lambsquarters ([13]; 31 g ai/ha, scale 0 to 100): 35 | Plant response rating, Lambsquarters ([13]; 62 g ai/ha, scale 0 to 100): 25 | Plant response rating, Blackgrass ([14]; 125 g ai/ha, scale of 0 to 100): 90 | Plant response rating, Blackgrass ([14]; 16 g ai/ha, scale 0 to 100): 10 | Plant response rating, Blackgrass ([14]; 31 g ai/ha, scale 0 to 100): 50 | Plant response rating, Blackgrass ([14]; 62 g ai/ha, scale 0 to 100): 80 | Plant response rating, Ryegrass, Italian ([15]; 125 g ai/ha, scale of 0 to 100): 80 | Plant response rating, Ryegrass, Italian ([15]; 31 g ai/ha, scale 0 to 100): 10 | Plant response rating, Ryegrass, Italian ([15]; 62 g ai/ha, scale 0 to 100): 20 | Plant response rating, Morningglory ([16]; 125 g ai/ha, scale of 0 to 100): 10 | Plant response rating, Morningglory ([16]; 31 g ai/ha, scale 0 to 100): 0 | Plant response rating, Morningglory ([16]; 62 g ai/ha, scale 0 to 100): 0

N#CC(CCCC(F)(F)F)c1ccccc1Oc1ncc(Cl)cn1 (stereo not drawn) [Compound 144]
Plant response rating, Pigweed [1, 17]: 100 | Plant response rating, Pigweed [1, 18]: 100 | Plant response rating, Ragweed [2, 17]: 0 | Plant response rating, Ragweed [2, 18]: 10 | Plant response rating, Foxtail, Giant [3, 17]: 100 | Plant response rating, Foxtail, Giant [3, 18]: 100 | Plant response rating, Ryegrass, Italian [4, 17]: 20 | Plant response rating, Ryegrass, Italian [4, 18]: 70 | Plant response rating, Wheat ([5]; 125 g ai/ha, scale of 0 to 100): 5 | Plant response rating, Wheat ([5]; 62 g ai/ha, scale 0 to 100): 0 | Plant response rating, Oilseed Rape ([6]; 125 g ai/ha, scale of 0 to 100): 90 | Plant response rating, Oilseed Rape ([6]; 31 g ai/ha, scale 0 to 100): 0 | Plant response rating, Oilseed Rape ([6]; 62 g ai/ha, scale 0 to 100): 5 | Plant response rating, Foxtail, Giant ([7]; 125 g ai/ha, scale of 0 to 100): 100 | Plant response rating, Foxtail, Giant ([7]; 31 g ai/ha, scale 0 to 100): 85 | Plant response rating, Foxtail, Giant ([7]; 62 g ai/ha, scale 0 to 100): 100 | Plant response rating, Waterhemp ([8]; 125 g ai/ha, scale of 0 to 100): 100 | Plant response rating, Waterhemp ([8]; 31 g ai/ha, scale 0 to 100): 98 | Plant response rating, Waterhemp ([8]; 62 g ai/ha, scale 0 to 100): 98 | Plant response rating, Corn (corn (Zea mays); 125 g ai/ha, scale of 0 to 100): 30 | Plant response rating, Corn (corn (Zea mays); 16 g ai/ha, scale 0 to 100): 0 | Plant response rating, Corn (corn (Zea mays); 31 g ai/ha, scale 0 to 100): 0 | Plant response rating, Corn (corn (Zea mays); 62 g ai/ha, scale 0 to 100): 5 | Plant response rating, Velvetleaf ([9]; 125 g ai/ha, scale of 0 to 100): 45 | Plant response rating, Velvetleaf ([9]; 31 g ai/ha, scale 0 to 100): 0 | Plant response rating, Velvetleaf ([9]; 62 g ai/ha, scale 0 to 100): 15 | Plant response rating, Soybean (soybean (Glycine max); 125 g ai/ha, scale of 0 to 100): 60 | Plant response rating, Soybean (soybean (Glycine max); 31 g ai/ha, scale 0 to 100): 0 | Plant response rating, Soybean (soybean (Glycine max); 62 g ai/ha, scale 0 to 100): 30 | Plant response rating, Nutsedge, Yellow ([10]; 125 g ai/ha, scale of 0 to 100): 70 | Plant response rating, Nutsedge, Yellow ([10]; 31 g ai/ha, scale 0 to 100): 20 | Plant response rating, Nutsedge, Yellow ([10]; 62 g ai/ha, scale 0 to 100): 60 | Plant response rating, Crabgrass, Large ([11]; 125 g ai/ha, scale of 0 to 100): 100 | Plant response rating, Crabgrass, Large ([11]; 16 g ai/ha, scale 0 to 100): 85 | Plant response rating, Crabgrass, Large ([11]; 31 g ai/ha, scale 0 to 100): 98 | Plant response rating, Crabgrass, Large ([11]; 62 g ai/ha, scale 0 to 100): 100 | Plant response rating, Ragweed ([12]; 125 g ai/ha, scale of 0 to 100): 10 | Plant response rating, Ragweed ([12]; 31 g ai/ha, scale 0 to 100): 0 | Plant response rating, Ragweed ([12]; 62 g ai/ha, scale 0 to 100): 0 | Plant response rating, Lambsquarters ([13]; 125 g ai/ha, scale of 0 to 100): 75 | Plant response rating, Lambsquarters ([13]; 31 g ai/ha, scale 0 to 100): 40 | Plant response rating, Lambsquarters ([13]; 62 g ai/ha, scale 0 to 100): 65 | Plant response rating, Blackgrass ([14]; 125 g ai/ha, scale of 0 to 100): 30 | Plant response rating, Blackgrass ([14]; 16 g ai/ha, scale 0 to 100): 5 | Plant response rating, Blackgrass ([14]; 31 g ai/ha, scale 0 to 100): 10 | Plant response rating, Blackgrass ([14]; 62 g ai/ha, scale 0 to 100): 40 | Plant response rating, Ryegrass, Italian ([15]; 125 g ai/ha, scale of 0 to 100): 60 | Plant response rating, Ryegrass, Italian ([15]; 31 g ai/ha, scale 0 to 100): 0 | Plant response rating, Ryegrass, Italian ([15]; 62 g ai/ha, scale 0 to 100): 0 | Plant response rating, Morningglory ([16]; 125 g ai/ha, scale of 0 to 100): 20 | Plant response rating, Morningglory ([16]; 31 g ai/ha, scale 0 to 100): 0 | Plant response rating, Morningglory ([16]; 62 g ai/ha, scale 0 to 100): 10
